Experimental data: patent publication US8124365B2, “Identification of genotype-selective anti-tumor agents” (Whitehead Institute for Biomedical Research, priority 2003, dated 2012)

Legend:
Format in all cases: cell-based, human
[1] = system: BJ-TERT/LT/ST/RAS^V12 cells; assay: Calcein AM viability assay, dilution series, BJ-TERT/LT/ST/RAS^V12 tumorigenic cells
Experimental: Described here is work carried out to identify compounds with increased potency or activity in the presence of hTERT, LT, ST, E6, E7 or RAS^V12. […] The primary screen tested (in quadruplicate) the effect of treating tumorigenic […], corresponding to 10 μM for a compound with a molecular weight of 400, which is the approximate median molecular weight of the libraries. […] In live cells, calcein AM is cleaved by intracellular esterases, forming the anionic fluorescent derivative calcein, which cannot diffuse out of live cells. […] The IC50 value (concentration required to inhibit 50% of the calcein AM signal) was calculated for each compound in each cell line (Table 1).
Calcein acetoxylmethyl ester (AM) is a cell membrane-permeable, non-fluorescent compound that is cleaved by intracellular esterases to form the anionic, cell-impermeable, fluorescent compound calcein. Viable cells are stained by calcein because of the presence of intracellular esterases and because the intact plasma membrane prevents fluorescent calcein from leaking out of cells (Wang et al., 1993, supra). Cells were seeded in 384-well plates using a Zymark Sciclone ALH, treated with each […], washed with phosphate-buffered saline on a Packard Minitrak with a 384-well washer and incubated for four hours with 0.7 μg/mL calcein (Molecular Probes). Total fluorescence intensity in each well was recorded on a Packard Fusion platereader, and converted to a percent inhibition of signal by subtracting the instrument background and dividing by the average signal obtained when cells were not treated with any compound.
Compounds to be retested were purchased from manufacturers. Stocks were prepared in DMSO at a concentration of 1 mg/ml in 384-well polypropylene plates with a 16-point, two-fold dilution dose curve of each compound in a column, in duplicates. Column 1-2 and 23-24 were left empty for controls. Daughter retest plates were prepared from stock retest plate by diluting 66.6 fold in DMEM in 384-well deep-deep well plates (4.5 μl transfer into 300 μl). Cells were seeded at a density of 6000 per well in 40 μl, and 20 μl was added from a daughter retest plate. […]
The IC50 in primary BJ cells was divided by the IC50 in BJ-TERT/LT/ST/RAS^V12 tumorigenic cells to obtain a tumor selectivity ratio for each compound. The compound selectivity for each genetic element was determined by calculating the selectivity ratio for each subsequent pair of cell lines in a series.

BJ primary cells = assay: Co-treatment of BJ primary cells with camptothecin or erastin and a second compound, calcein AM viability staining; conditions: for effect on BJ cell viability on its own: calcein AM; for sensitization of BJ cells to camptothecin: simultaneous treatment with camptothecin
Source text: (A-C) Western blot of lysates from BJ, BJ-TERT, BJ-TERT/LT/ST, BJ-TERT/LT/ST/RAS^V12, BJ-TERT/LT/RAS^V12 and BJ-TERT/LT/RAS^V12/ST cells with an antibody directed against topoisomerase II (A) or TOPI (B, C). In panel (C), cells were transfected with an siRNA directed against TOPI, lamic A/C or with a control double strand DNA duplex of the same length (TOPI dsDNA). In each case, the blot was probed with an antibody against eIF-4E to identify differences in the amount of protein loaded. The relative amount is quantitated below each band. […] Cell number was determined after transfection with an siRNA directed against TOPI and treatment with the indicated concentrations of camptothecin. (E) Okadaic acid, an inhibitor of PP2A and other cellular phosphatases, sensitizes primary human cells to camptothecin. BJ primary cells were treated simultaneously with the indicated concentrations of both camptothecin and okadaic acid and the effect on calcein AM viability staining was determined. […] BJ primary cells were treated with the indicated concentrations of okadaic acid and the expression level of TOPI was determined by western blot. The relative amount is quantitated below each band.
The compounds in group (iii) are camptothecin (CPT) and a novel compound from a combinatorial library, which Applicants have named erastin, for eradicator of RAS and ST-expressing cells (FIG. 2). Efficient CPT-induced and erastin-induced cell death requires the presence of both ST and RAS^V12 (FIGS. 3 and 4 and Table 1). Although CPT and erastin have a similar genetic basis of selectivity, they have distinct mechanisms of action. […] The phosphatase inhibitor okadaic acid was capable of sensitizing otherwise resistant BJ primary cells to CPT (FIG. 5E), possibly because okadaic acid upregulates TOP1 (FIG. 5F).

TOP1 = assay: Western blot of TOP1 expression in okadaic acid-treated BJ primary cells
Source text: (A-C) Western blot of lysates from BJ, BJ-TERT, BJ-TERT/LT/ST, BJ-TERT/LT/ST/RAS^V12, BJ-TERT/LT/RAS^V12 and BJ-TERT/LT/RAS^V12/ST cells with an antibody directed against topoisomerase II (A) or TOPI (B, C). In panel (C), cells were transfected with an siRNA directed against TOPI, lamic A/C or with a control double strand DNA duplex of the same length (TOPI dsDNA). In each case, the blot was probed with an antibody against eIF-4E to identify differences in the amount of protein loaded. The relative amount is quantitated below each band. […] Cell number was determined after transfection with an siRNA directed against TOPI and treatment with the indicated concentrations of camptothecin. (E) Okadaic acid, an inhibitor of PP2A and other cellular phosphatases, sensitizes primary human cells to camptothecin. BJ primary cells were treated simultaneously with the indicated concentrations of both camptothecin and okadaic acid and the effect on calcein AM viability staining was determined. […] BJ primary cells were treated with the indicated concentrations of okadaic acid and the expression level of TOPI was determined by western blot. The relative amount is quantitated below each band. […]

reactive oxygen species = assay: ROS analysis, flow cytometry using H2DCF-DA; conditions: engineered cells
Source text: 2′7′ dichlorodihydrofluorescein diacetate (H2DCF-DA) is a non-fluorescent cell permeable compound. The endogenous esterase enzyme inside the cell cleaves the diacetate part, and it can no longer pass out of the cell. Thus it accumulates in the cell. Then H2DCF reacts with ROS to form fluorescent dichlorofluorescene (DCF) which can be measured by flow cytometry in FL1 channel. • 1. Seed cells at 3×10^5 cells per dish in 60 mm dishes and allow to grow overnight. • 2. Treat with the test compound for different period of time (1-10 hr). • 3. Maintain one dish for untreated cells, compound treated cell and positive control dish (hydrogen peroxide treated) for each time point. • 4. Incubate the cells with 10 μM of H2DCF-DA for 10 minutes at 37° C. • 5. For positive control cells, after 5 minutes of H2DCF-DA loading, add 500 μM of hydrogen peroxide and incubate for 5 minutes further. • 6. Harvest the cell by trypsinization. • 7. Wash with cold PBS-twice. • 8. Resuspend the pellet in 100 μl of PBS and transfer into 5 ml FACS tube. • 9. Add 5 μl of propidium iodide (50 μg/ml) and incubate for 10 minutes on ice in dark. • 10. Add 400 μl of PBS and analyze by flow cytometry (Becton-Dickinson). • 11. Acquire the data and analyze using CellQuest software program. • 12. Take only propidium iodiode negative cells (viable cells) for the analysis for DCF staining using the FL1 channel, PI in FL3 channel, plot a quadrant chart.

[2] = system: tumor cells (BJELR cells) versus normal cells (BJEH cells); assay: Testing of erastin analogs for activity and selectivity in tumor cells versus normal cells
Source text: Applicants additionally tested 135 analogs of erastin for activity and selectivity in tumor cells versus normal cells. […] This compound was named erastin B (see FIG. 8). […] BJELR cells are BJ-TERT/LT/ST/RAS^V12 cells, and BJEH are BJ-TERT cells.

BJELR cells = assay: Screen of ACL library for suppressors of erastin activity in BJELR cells; conditions: 5 μg/ml erastin
Experimental: ACL library comprises 1,540 compounds and all compounds were prepared in DMSO at […] in 384-well polypropylene plates and stored at −20° C. Replica daughter plates for each library plate were prepared using Zymark Scilone ALH. The daughter plates were diluted 50 fold in DMEM and compound concentration in the daughter plate is 80 μg/ml with 2% DMSO. In assay plate compound from the daughter plate is diluted 20 fold with cell suspension, thus final concentration of each compound is 4 μg/ml.
BJELR cells were seeded at 6000 cells/well (57 μl) (for co-treatment screen) and 5000 cells/well (57 μl) (for pretreatment screen) in 384-well black, clear bottom plates using syringe bulk dispenser. For co-treatment suppressor screen, cells were treated with 3 μl of compound from the daughter plates of ACL library (final concentration in assay plate at 4 μg/ml) and at the same time treated with 5 μg/ml of erastin. Compound transfer was done using 384 fixed cannula head. Plates were incubated for 48 hours at 37° C. in incubator with 5% CO2. For the pretreatment screens, cells were pre-incubated with the compound from ACL daughter library plate for overnight and then treated with 5 μg/ml of erastin for further 48 hours. […] Fluorescence intensity was determined using Fusion platereader with filters centered in an excitation of 485 nm and emission of 535 nm. […]

[3] = system: BJ-TERT/LT/ST/RAS^V12 cells; assay: Pan-caspase inhibitor block of compound-induced cell death; conditions: 50 μM inhibitor

## CCOc1ccccc1-n1c(C(C)N2CCN(C(=O)COc3ccc(Cl)cc3)CC2)nc2ccccc2c1=O (stereo not drawn) [Erastin, erastin]
[1]; BJ-TERT/LT/ST/RAS^V12 cells, within 18 hours
  effectiveness of cell death: 100%

## C=C1[C@@H](O)[C@@H]2O[C@]3(CC[C@H](/C=C/[C@@H](C)[C@@H]4CC(C)=C[C@@]5(O[C@H](C[C@@](C)(O)C(=O)O)CC[C@H]5O)O4)O3)CC[C@H]2O[C@@H]1[C@@H](O)C[C@H](C)[C@H]1O[C@@]2(CCCCO2)CC[C@H]1C [okadaic acid]
BJ primary cells
  sensitization of BJ or BJ-TERT cells to erastin: does not render BJ or BJ-TERT cells sensitive to erastin
  sensitization of BJ cells to camptothecin: renders BJ cells sensitive to camptothecin
BJ primary cells; 3.4 nM
  effect on BJ cell viability on its own: no effect on its own
BJ primary cells; highest concentrations tested
  effect on BJ cell viability on its own: kills BJ cells
TOP1
  expression level of TOP1: stimulates expression of TOP1

## O=C1c2c(O)ccc(O)c2C(=O)c2c(NCCNCCO)ccc(NCCNCCO)c21 [Mitoxantrone, mitoxantrone]
[1]; IC50 in primary BJ cells divided by IC50 in BJ-TERT/LT/ST/RAS^V12 tumorigenic cells
  Tumor Selectivity: 16
Reactive oxygen species
  formation of reactive oxygen species: did not observe the formation of ROS

## COc1cccc2c1C(=O)c1c(O)c3c(c(O)c1C2=O)C[C@@](O)(C(C)=O)C[C@@H]3O[C@H]1C[C@H](N)[C@H](O)[C@H](C)O1 [Daunorubicin, daunorubicin]
Reactive oxygen species
  formation of reactive oxygen species: did not observe the formation of ROS

## erastin B
[2]
  activity and selectivity in tumor cells versus normal cells: active and selective, but less potent than erastin

## COc1cccc2c1C(=O)c1c(O)c3c(c(O)c1C2=O)C[C@@](O)(C(=O)CO)C[C@@H]3O[C@H]1C[C@H](N)[C@H](O)[C@H](C)O1 [Doxorubicin, doxorubicin]
Reactive oxygen species
  formation of reactive oxygen species: did not observe the formation of ROS

## Cc1c(C)c2c(c(C)c1O)CC[C@@](C)(CCC[C@H](C)CCC[C@H](C)CCCC(C)C)O2 [α-tocopherol]
BJELR cells
  suppression of erastin activity: suppress erastin activity

## COc1cc([C@@H]2c3cc4c(cc3[C@H](O)[C@H]3COC(=O)[C@H]23)OCO4)cc(OC)c1OC [podophyllotoxin]
BJ primary cells
  sensitization of BJ cells to camptothecin: does not sensitize BJ or BJ-TERT cells to CPT

## COC(=O)CC(NC(=O)OC(C)(C)C)C(=O)CF [BOC-D-FMK, Boc-Asp(Ome)-fluoromethyl ketone]
[3]
  block of cell death induced by CPT: partially blocked cell death induced by CPT
  block of cell death induced by erastin: not by erastin
